Among the test systems are HS 578T breast; PC-3 prostate; MDA-MB-435; BT-549 breast; DU-145 prostate.
What all share (assay): NCI anticancer screen, dose series, 48 h

SMILES strings stand for the structures.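 Five compound concentrations were applied to cells in 96-well plates for 48 hours; endpoints were derived by simple linear interpolation of the resulting dose-response curve. GI50 = concentration required for 50% inhibition of growth. At the TGI there is no net growth.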

Consider `COc1ccc(CNc2c3ccccc3nc3ccc(OC)cc23)cc1`, for which the GI50 in the experiment on HS 578T breast was 2.85 µM; in the experiment with PC-3 prostate, 2.8 µM; in the experiment on MDA-MB-435 it was 1.99 µM; in the experiment on BT-549 breast, 4.25 µM; in the experiment on DU-145 prostate, 3.16 µM. In addition, the TGI in the experiment on HS 578T breast came to 8.68 µM; in the experiment on PC-3 prostate, 11.8 µM; with MDA-MB-435, 6.32 µM; in the experiment with BT-549 breast it was 15.8 µM; with DU-145 prostate, 10.9 µM.

Consider `COc1cc2c(Oc3ccc4[nH]c(C)cc4c3F)ccnc2cc1OCC1(N)CC1`, for which the GI50 was 0.759 µM in the experiment with HS 578T breast; 1.36 µM in the experiment on PC-3 prostate; 0.31 µM in the experiment on MDA-MB-435; 1.3 µM in the experiment with BT-549 breast; 3.67 µM in the experiment on DU-145 prostate. For the same compound, the TGI in the experiment on HS 578T breast is 3.29 µM; in the experiment with PC-3 prostate it was 13.4 µM; in the experiment with MDA-MB-435, 1.21 µM; with BT-549 breast it was 3.96 µM; in the experiment on DU-145 prostate, > 100 µM.

For `CN1CCCCCC(=N\O)/C(=N/O)CCCCC1`, the TGI with HS 578T breast, in the experiment with PC-3 prostate, in the experiment with MDA-MB-435, in the experiment with BT-549 breast and with DU-145 prostate was > 100 µM each time.

For the compound `O=c1[nH]ccc2nc(N3CCC(O)CC3)nc(Nc3cccc(C(F)(F)F)c3)c12`, the GI50 in the experiment with HS 578T breast is 1.93 µM; in the experiment on PC-3 prostate, 2.29 µM; in the experiment with MDA-MB-435, 1.29 µM; in the experiment with BT-549 breast, 1.6 µM; with DU-145 prostate it was 1.56 µM. For the same compound, the TGI with HS 578T breast amounted to 14.1 µM; in the experiment on PC-3 prostate it was 13 µM; in the experiment on MDA-MB-435 it was 3.55 µM; in the experiment with BT-549 breast it was 4.34 µM; with DU-145 prostate, 19.3 µM.

As for `CCCN1CCN(c2ccc3nc(-c4ccc5nc(-c6cc(OC)ccc6OC)[nH]c5c4)[nH]c3c2)CC1`, the GI50 in the experiment on HS 578T breast was 20.1 µM; in the experiment with PC-3 prostate, 1.75 µM; in the experiment on MDA-MB-435 it was 1.79 µM; in the experiment with BT-549 breast, 15.7 µM; in the experiment with DU-145 prostate, 1.89 µM. Moreover, the TGI stood at 55.6 µM in the experiment on HS 578T breast; 4.04 µM in the experiment on PC-3 prostate; 3.24 µM in the experiment with MDA-MB-435; 36.1 µM in the experiment on BT-549 breast; 3.4 µM with DU-145 prostate.

For the compound `COc1cccc(-c2nc3sccn3c2-c2ccnc(NCCNS(=O)(=O)c3ccccc3)c2)c1`, the GI50 in the experiment with HS 578T breast is 3.7 µM; in the experiment on PC-3 prostate, 1.68 µM; with MDA-MB-435 it was 3.1 µM; in the experiment on BT-549 breast it was 2.29 µM; in the experiment with DU-145 prostate, 2.98 µM. For the same compound, the TGI in the experiment on HS 578T breast is > 100 µM; in the experiment with PC-3 prostate, > 100 µM; with MDA-MB-435, > 100 µM; in the experiment on BT-549 breast it was 8.67 µM; with DU-145 prostate, > 100 µM.

For the compound `Cc1cc(N2CCCC2)nc(NC2CCCC(Nc3ccnc4cc(Cl)ccc34)C2)n1` (stereo not given), the GI50 in the experiment with HS 578T breast was 2 µM; in the experiment with MDA-MB-435, 1.56 µM; in the experiment with BT-549 breast it was 1.8 µM; with DU-145 prostate, 1.24 µM. The TGI with HS 578T breast amounted to 4.72 µM; with MDA-MB-435, 3.11 µM; in the experiment on BT-549 breast it was 3.35 µM; in the experiment on DU-145 prostate, 2.77 µM.

With `O=C1c2cc([N+](=O)[O-])ccc2-c2cccc(F)c21`, the TGI with HS 578T breast, with PC-3 prostate, with MDA-MB-435, with BT-549 breast and with DU-145 prostate was > 100 µM each time.

With `COc1ccc2c(CN3CCC[C@H]3C(=O)O)cc3cc4c(cc3c2c1)OCO4`, the GI50 was 11.6 µM in the experiment on HS 578T breast, 14.7 µM with MDA-MB-435, 15.7 µM in the experiment on BT-549 breast and 19.7 µM in the experiment with DU-145 prostate. In addition, the TGI in the experiment with HS 578T breast was 48 µM; in the experiment on MDA-MB-435, 30.4 µM; with BT-549 breast, 43.3 µM; in the experiment on DU-145 prostate, > 100 µM.

For `Cc1cccc(Cl)c1NC(=O)/C=C/c1ccccc1`, the TGI in the experiment on HS 578T breast, in the experiment on PC-3 prostate, in the experiment with MDA-MB-435, in the experiment on BT-549 breast and in the experiment with DU-145 prostate was > 100 µM throughout.

Take `Cc1cc(-c2nnc(N)nc2-c2ccc(F)cc2)cc(Cl)n1`: the GI50 was > 100 µM with HS 578T breast; 76.9 µM with PC-3 prostate; > 100 µM in the experiment on MDA-MB-435; 58.1 µM in the experiment with BT-549 breast; > 100 µM in the experiment on DU-145 prostate. The TGI with HS 578T breast, in the experiment with PC-3 prostate, with MDA-MB-435, in the experiment on BT-549 breast and in the experiment with DU-145 prostate was > 100 µM in each case.

Regarding `COc1ccc2c(c1)OC1=C(C(=O)OC1)C2c1cc(OC)c(OC)c(OC)c1` (stereo not given), the GI50 with HS 578T breast is 0.324 µM; in the experiment on PC-3 prostate, 0.391 µM; in the experiment on MDA-MB-435, 0.104 µM; in the experiment on BT-549 breast it was 1.29 µM; in the experiment with DU-145 prostate it was 0.529 µM. In addition, the TGI in the experiment on HS 578T breast is > 100 µM; in the experiment on PC-3 prostate, > 100 µM; in the experiment on MDA-MB-435 it was 0.358 µM; in the experiment with BT-549 breast, > 100 µM; in the experiment with DU-145 prostate it was > 42.4 µM.

With `C=CCN(CC=C)C(=O)c1cc(C)nc2c1c(=O)n(-c1ccccc1)c(=O)n2CC(O)CN1CCN(c2ncccn2)CC1` (stereo not given), the GI50 in the experiment on HS 578T breast, with MDA-MB-435 and with DU-145 prostate was > 100 µM each time. The TGI in the experiment with HS 578T breast, in the experiment on MDA-MB-435 and in the experiment with DU-145 prostate was > 100 µM in each case.

In the case of `O=C([O][Hg][CH2]C1COCC([CH2][Hg][O]C(=O)c2ccccc2)O1)c1ccccc1` (stereo not given), the GI50 in the experiment on HS 578T breast was 19.8 µM; with PC-3 prostate it was 15.9 µM; with MDA-MB-435, 14.2 µM; in the experiment on BT-549 breast, 17.3 µM; with DU-145 prostate it was 15.2 µM. In addition, the TGI in the experiment on HS 578T breast stood at 65.8 µM; in the experiment with PC-3 prostate, 32.4 µM; with MDA-MB-435, 30.9 µM; in the experiment on BT-549 breast, 31.2 µM; with DU-145 prostate it was 28.7 µM.

For `C=CCC(C(=O)O)c1ccccc1` (stereo not given), the TGI with HS 578T breast, in the experiment on PC-3 prostate, in the experiment on MDA-MB-435, with BT-549 breast and in the experiment with DU-145 prostate was > 100 µM throughout.

In the case of `CC(C)CNc1nc(-c2ccccc2)nc2ccccc12`, the GI50 with HS 578T breast is 16.5 µM; in the experiment with PC-3 prostate it was 17.1 µM; in the experiment with MDA-MB-435, 18.5 µM; with DU-145 prostate, 14.8 µM. Besides, the TGI was found to be 33.9 µM in the experiment on HS 578T breast, 34.8 µM with PC-3 prostate, 37.9 µM with MDA-MB-435 and 28.2 µM in the experiment on DU-145 prostate.

The record behind these values is PubChem BioAssay (NCI).
